Assay results reported in the supplement of paper PMC10883282.

What was measured:
Assay in all cases: relative viability vs DMSO control (72 h) (fraction); higher = more viable cells
[1] = tested on: MES-SA
In short: (§1)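 Sarcoma cell lines went into 384-well plates at densities chosen to reach 80–90% confluence. After 24 h, each well received 2.5 µl of serially diluted compound, with source plates running from 10 mM to 0.0002 mM, and the plates were kept 72 h at 37 °C, 5% CO2, alongside 0.1% DMSO vehicle and a 5 µM positive control. Relative viability was derived from ATPLite readings as percent growth and averaged over up to triplicate wells. The data were then rescaled so that 1 stands for full and 0 for none.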

[2] = tested on: SK-LMS-1
In short: as §1

[3] = tested on: SK-ES-1
In short: as §1

[4] = tested on: SYO-1
In short: as §1

[5] = tested on: SW1353
In short: as §1

[6] = tested on: RD-ES
In short: as §1

[7] = tested on: VA-ES-BJ
In short: as §1

[8] = tested on: HT1080
In short: as §1

[9] = tested on: RD
In short: as §1

[10] = tested on: KHOS-240S
In short: as §1

[11] = tested on: SW982
In short: as §1

[12] = tested on: G401
In short: as §1

CC(C)(C)c1nc(-c2cccc(NS(=O)(=O)c3c(F)cccc3F)c2F)c(-c2ccnc(N)n2)s1 [Dabrafenib]
Conditions | relative viability
[1], 0.00017 µM | 0.944
[1], 0.00051 µM | 0.921
[1], 0.00152 µM | 0.908
[1], 0.00457 µM | 0.905
[1], 0.01372 µM | 0.909
[1], 0.04115 µM | 0.883
[1], 0.1235 µM | 0.733
[1], 0.3704 µM | 0.53
[1], 1.111 µM | 0.504
[1], 3.333 µM | 0.744
[1], 10 µM | 0.745
[2], 0.00017 µM | 1.07
[2], 0.00051 µM | 1.06
[2], 0.00152 µM | 1.05
[2], 0.00457 µM | 1.02
[2], 0.01372 µM | 0.964
[2], 0.04115 µM | 0.84
[2], 0.1235 µM | 0.7165
[2], 0.3704 µM | 0.586
[2], 1.111 µM | 0.607
[2], 3.333 µM | 0.691
[2], 10 µM | 0.557
[3], 0.00017 µM | 1.01
[3], 0.00051 µM | 1.04
[3], 0.00152 µM | 1
[3], 0.00457 µM | 1.02
[3], 0.01372 µM | 0.987
[3], 0.04115 µM | 0.927
[3], 0.1235 µM | 0.794
[3], 0.3704 µM | 0.524
[3], 1.111 µM | 0.368
[3], 3.333 µM | 0.41
[4], 0.00017 µM | 0.985
[4], 0.00051 µM | 0.9278
[4], 0.00152 µM | 0.926
[4], 0.00457 µM | 0.911
[4], 0.01372 µM | 0.92
[4], 0.04115 µM | 0.919
[4], 0.1235 µM | 0.898
[4], 0.3704 µM | 0.939
[4], 1.111 µM | 0.857
[4], 3.333 µM | 0.871
[4], 10 µM | 0.816
[5], 0.00017 µM | 1.02
[5], 0.00051 µM | 1.01
[5], 0.00152 µM | 0.957
[5], 0.00457 µM | 0.959
[5], 0.01372 µM | 0.9603
[5], 0.04115 µM | 0.936
[5], 0.1235 µM | 0.898
[5], 0.3704 µM | 0.875
[5], 1.111 µM | 0.859
[5], 3.333 µM | 0.89
[5], 10 µM | 0.988
[6], 0.00017 µM | 0.94
[6], 0.00051 µM | 0.924
[6], 0.00152 µM | 0.948
[6], 0.00457 µM | 0.94
[6], 0.01372 µM | 0.911
[6], 0.04115 µM | 0.872
[6], 0.1235 µM | 0.838
[6], 0.3704 µM | 0.706
[6], 1.111 µM | 0.531
[6], 3.333 µM | 0.508
[6], 10 µM | 0.557
[7], 0.00017 µM | 1.02
[7], 0.00051 µM | 1.02
[7], 0.00152 µM | 1.06
[7], 0.00457 µM | 1.05
[7], 0.01372 µM | 1.07
[7], 0.04115 µM | 1.02
[7], 0.1235 µM | 1.01
[7], 0.3704 µM | 0.82
[7], 1.111 µM | 0.646
[7], 3.333 µM | 0.654
[7], 10 µM | 0.5821
[8], 0.00017 µM | 1.05
[8], 0.00051 µM | 1.09
[8], 0.00152 µM | 1.01
[8], 0.00457 µM | 1.07
[8], 0.01372 µM | 1.05
[8], 0.04115 µM | 1.11
[8], 0.1235 µM | 1.13
[8], 0.3704 µM | 0.944
[8], 1.111 µM | 0.837
[8], 3.333 µM | 0.886
[8], 10 µM | 0.6761
[9], 0.00017 µM | 1.07
[9], 0.00051 µM | 1.07
[9], 0.00152 µM | 1.07
[9], 0.00457 µM | 1.11
[9], 0.01372 µM | 1.12
[9], 0.04115 µM | 1.1
[9], 0.1235 µM | 1.1
[9], 0.3704 µM | 0.989
[9], 1.111 µM | 0.915
[9], 3.333 µM | 0.871
[9], 10 µM | 0.846
[10], 0.00017 µM | 1.07
[10], 0.00051 µM | 1.06
[10], 0.00152 µM | 1.04
[10], 0.00457 µM | 1.03
[10], 0.01372 µM | 1.01
[10], 0.04115 µM | 1
[10], 0.1235 µM | 1.03
[10], 0.3704 µM | 1.01
[10], 1.111 µM | 0.975
[10], 3.333 µM | 0.964
[10], 10 µM | 0.854
[11], 0.00017 µM | 1
[11], 0.00051 µM | 0.988
[11], 0.00152 µM | 0.974
[11], 0.00457 µM | 0.886
[11], 0.01372 µM | 0.85
[11], 0.04115 µM | 0.779
[11], 0.1235 µM | 0.701
[11], 0.3704 µM | 0.469
[11], 1.111 µM | 0.384
[11], 3.333 µM | 0.369
[11], 10 µM | 0.356
[12], 0.00017 µM | 0.982
[12], 0.00051 µM | 0.994
[12], 0.00152 µM | 0.916
[12], 0.00457 µM | 0.937
[12], 0.01372 µM | 0.949
[12], 0.04115 µM | 0.955
[12], 0.1235 µM | 0.929
[12], 0.3704 µM | 0.857
[12], 1.111 µM | 0.768
[12], 3.333 µM | 0.781
[12], 10 µM | 0.814

CCc1cnn2c(NCc3ccc[n+]([O-])c3)cc(N3CCCC[C@H]3CCO)nc12 [Dinaciclib]
Conditions | relative viability
[1], 0.00017 µM | 0.994
[1], 0.00051 µM | 1.04
[1], 0.00152 µM | 0.957
[1], 0.00457 µM | 0.912
[1], 0.01372 µM | 0.383
[1], 0.04115 µM | 0.0374
[1], 0.1235 µM | 0.0354
[1], 0.3704 µM | 0.0357
[1], 1.111 µM | 0.0288
[1], 3.333 µM | 0.0272
[1], 10 µM | 0.0262
[2], 0.00017 µM | 1.06
[2], 0.00051 µM | 1.05
[2], 0.00152 µM | 1.07
[2], 0.00457 µM | 1.03
[2], 0.01372 µM | 0.817
[2], 0.04115 µM | 0.325
[2], 0.1235 µM | 0.309
[2], 0.3704 µM | 0.333
[2], 1.111 µM | 0.341
[2], 3.333 µM | 0.34
[2], 10 µM | 0.353
[3], 0.00017 µM | 0.939
[3], 0.00051 µM | 1
[3], 0.00152 µM | 0.939
[3], 0.00457 µM | 0.79
[3], 0.01372 µM | 0.411
[3], 0.04115 µM | 0.0163
[3], 0.1235 µM | 0.0154
[3], 0.3704 µM | 0.00863
[3], 1.111 µM | 0.00557
[3], 3.333 µM | 0.000967
[3], 10 µM | -0.000867
[4], 0.00017 µM | 0.982
[4], 0.00051 µM | 0.998
[4], 0.00152 µM | 0.982
[4], 0.00457 µM | 0.908
[4], 0.01372 µM | 0.28
[4], 0.04115 µM | 0.248
[4], 0.1235 µM | 0.256
[4], 0.3704 µM | 0.294
[4], 1.111 µM | 0.288
[4], 3.333 µM | 0.295
[4], 10 µM | 0.305
[5], 0.00017 µM | 1.05
[5], 0.00051 µM | 1.08
[5], 0.00152 µM | 1.07
[5], 0.00457 µM | 1.07
[5], 0.01372 µM | 0.944
[5], 0.04115 µM | 0.238
[5], 0.1235 µM | 0.238
[5], 0.3704 µM | 0.242
[5], 1.111 µM | 0.235
[5], 3.333 µM | 0.234
[5], 10 µM | 0.219
[6], 0.00017 µM | 0.937
[6], 0.00051 µM | 0.916
[6], 0.00152 µM | 0.912
[6], 0.00457 µM | 0.886
[6], 0.01372 µM | 0.612
[6], 0.04115 µM | 0.0429
[6], 0.1235 µM | 0.0102
[6], 0.3704 µM | 0.00417
[6], 1.111 µM | 0.0013
[6], 3.333 µM | -0.0014
[6], 10 µM | -0.00263
[7], 0.00017 µM | 0.994
[7], 0.00051 µM | 1.011
[7], 0.00152 µM | 1.03
[7], 0.00457 µM | 0.94
[7], 0.01372 µM | 0.269
[7], 0.04115 µM | 0.222
[7], 0.1235 µM | 0.227
[7], 0.3704 µM | 0.255
[7], 1.111 µM | 0.245
[7], 3.333 µM | 0.253
[7], 10 µM | 0.247
[8], 0.00017 µM | 1.04
[8], 0.00051 µM | 1.04
[8], 0.00152 µM | 1.04
[8], 0.00457 µM | 1.09
[8], 0.01372 µM | 0.792
[8], 0.04115 µM | 0.193
[8], 0.1235 µM | 0.208
[8], 0.3704 µM | 0.209
[8], 1.111 µM | 0.202
[8], 3.333 µM | 0.216
[8], 10 µM | 0.219
[9], 0.00017 µM | 0.828
[9], 0.00051 µM | 0.851
[9], 0.00152 µM | 0.821
[9], 0.00457 µM | 0.736
[9], 0.01372 µM | 0.504
[9], 0.04115 µM | 0.163
[9], 0.1235 µM | 0.162
[9], 0.3704 µM | 0.137
[9], 1.111 µM | 0.119
[9], 3.333 µM | 0.103
[9], 10 µM | 0.0835
[10], 0.00017 µM | 0.954
[10], 0.00051 µM | 0.976
[10], 0.00152 µM | 0.966
[10], 0.00457 µM | 0.913
[10], 0.01372 µM | 0.45
[10], 0.04115 µM | 0.214
[10], 0.1235 µM | 0.207
[10], 0.3704 µM | 0.21
[10], 1.111 µM | 0.218
[10], 3.333 µM | 0.213
[10], 10 µM | 0.181
[11], 0.00017 µM | 0.9568
[11], 0.00051 µM | 0.98
[11], 0.00152 µM | 0.984
[11], 0.00457 µM | 0.962
[11], 0.01372 µM | 0.566
[11], 0.04115 µM | 0.223
[11], 0.1235 µM | 0.239
[11], 0.3704 µM | 0.269
[11], 1.111 µM | 0.267
[11], 3.333 µM | 0.25
[11], 10 µM | 0.227
[12], 0.00017 µM | 0.997
[12], 0.00051 µM | 0.974
[12], 0.00152 µM | 0.989
[12], 0.00457 µM | 0.915
[12], 0.01372 µM | 0.46
[12], 0.04115 µM | 0.089
[12], 0.1235 µM | 0.0853
[12], 0.3704 µM | 0.0974
[12], 1.111 µM | 0.0916
[12], 3.333 µM | 0.0843
[12], 10 µM | 0.072
